Results reported in patent US20070099822A1, “Regulation of tissue mineralization and phosphate metabolism by asarm peptides” (priority 2003, published 2007).
“And” between values parts separate entries of the source, which are not always exact repeats. Identical values can stand only once. “Also recorded” adds a separate entry of the source. Like-named read-outs stand apart in the source and are kept apart here. Blank lines part the entries; values can stand above or below the compound they belong to. Square brackets hold non-standard residues; d marks the D form. Peptide text beside a SMILES is read from it. pS = N[C@@H](COP(=O)(O)O)C(=O)O

Legend:
MEPE-PHEX interaction = biological target: T1, MEPE-PHEX interaction (Homo sapiens, UniProt P78562); experiment: Surface plasmon resonance, peptide solution competition of secPHEX-MEPE binding; details: for inhibition of MEPE-PHEX interaction: peptide pre-mixed with secPHEX, MEPE-RGD up to 85 μM
T1 construct: to generate a soluble, secreted form of PHEX; made in house; host or cells: secPHEX: mammalian cells (gift, University of Montreal); MEPE: S. frugiperda insect cells
T1 sequence (P78562 46-749 limits assumed): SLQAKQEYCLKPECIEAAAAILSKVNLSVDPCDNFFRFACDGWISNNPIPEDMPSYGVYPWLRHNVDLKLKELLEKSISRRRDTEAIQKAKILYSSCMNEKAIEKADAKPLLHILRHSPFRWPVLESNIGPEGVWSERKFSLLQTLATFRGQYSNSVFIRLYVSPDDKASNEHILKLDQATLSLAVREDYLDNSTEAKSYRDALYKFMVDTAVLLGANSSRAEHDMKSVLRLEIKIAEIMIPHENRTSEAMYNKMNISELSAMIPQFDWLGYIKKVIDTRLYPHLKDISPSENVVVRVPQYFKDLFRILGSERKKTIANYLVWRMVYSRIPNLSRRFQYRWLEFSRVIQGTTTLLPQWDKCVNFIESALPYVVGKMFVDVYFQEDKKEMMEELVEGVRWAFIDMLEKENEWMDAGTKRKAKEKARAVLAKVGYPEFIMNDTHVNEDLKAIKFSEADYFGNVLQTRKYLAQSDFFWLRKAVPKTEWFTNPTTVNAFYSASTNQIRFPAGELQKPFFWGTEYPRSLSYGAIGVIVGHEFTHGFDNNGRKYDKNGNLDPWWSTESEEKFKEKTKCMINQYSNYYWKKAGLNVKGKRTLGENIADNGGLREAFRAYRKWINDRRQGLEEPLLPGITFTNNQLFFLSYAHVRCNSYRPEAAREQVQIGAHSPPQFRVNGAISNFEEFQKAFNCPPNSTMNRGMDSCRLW
Excerpt: Surface Plasmon Resonance: Synthetic peptides & competitive PHEX-MEPE binding studies. For these experiments CM-5 chips containing flow-cells immobilized with MEPE, PHEX and IgG ligands at 6000 RU were used. Just prior to SPR injection, stock solution of specific-peptide (as defined for each experiment; see Table 1), and dissolved in analyte buffer (HBS-P—Zn) […] The following equation was used to compute KDapp values: RU=Bmax/inhib×(peptide(μM))/KDapp+(peptide(μM)). The Bmax/inh value represents the maximal percentage inhibition change in RU (i.e., PHEX-MEPE binding) relative to the “non-peptide” control (0% inhibition of binding), using a constant analyte flow-solution of secPHEX of 250 nM against immobilized MEPE ligand at 6000 RU. […] The control MEPE-RGD peptide had no effect on MEPE-PHEX interactions.

male ICR Swiss mice = experiment: Example VI: subcutaneous PO4-ASARM-peptide or etidronate, calcein fluorescence and Sanderson osteoid staining; format: in vivo; details: for increase of osteoid layer thickness relative to vehicle / percentage quenching of calvarial calcein fluorescence relative to vehicle / calvariae calcein fluorescence / calvarial osteoid relative thickness (Sanderson staining): etidronate 10 mg/kg/day; for calvariae calcein fluorescence: s.c. 12 days, vehicle 1100.5; for calvarial osteoid relative thickness (Sanderson staining): vehicle 2.3
Protocol: Subcutaneous administration of PO4-ASARM-peptide, etidronate (EHDP), and calcein. Three separate groups of male ICR Swiss mice (4-5 weeks) were subcutaneously injected once a day (9:00AM), for 12 days except for days 6 and 7 with 50 μL solutions of either (1) Eitidronate (EHDP) (10 mg/kg/day); (2) PO4-ASARM-peptide (2 mg/kg/day); or (3) vehicle consisting of 5 mM HEPES pH 7.4/150 mM NaCL/0.1% BSA. The synthetic PO4-ASARM-peptide was dissolved in vehicle (1.0 mg/mL). Etidronate was first dissolved in 150 mM NaCl and then buffered to pH 7.5 with 1M NaOH to give a 5 mg/mL solution. The 10 mg/kg/day doses of etidronate have previously been reported to inhibit mineralization in rats and were used as positive controls (Trechsel, et al., Am J Physiol 232(3):E298-305, 1977; Bonjour, et al., Am J Physiol 229(2):402-8, 1975). All three groups were subcutaneously injected with calcein (20 mg/kg/day) on days 3, 5, […]. The degree of calcein fluorescence and/or fluorescence-quenching is an indicator of mineralization status (see next section). The calcein injections when given were administered 1 h after the daily injections of PO4-ASARM-peptide, EHDP or vehicle. Animals were then terminated humanely and calvariae plus femurs/tibia were fixed in 70% ethanol (non-decalcified). After fluorescence imaging (see FIG. 35) calvariae were processed in plastic and stained with Sanderson's stain (see below). Five animals per group were used for statistical analysis of fluorescence quenching and histological Sanderson staining.
Calcein fluorescence in mice calvariae, hind-limbs & fluor-imager analysis of mineralization. A Bio-Rad (Hercules, Calif.) FluorImager^max fluorescent imager was used to simultaneously image all the samples from each of the 3 groups (15 animals; five animals per group). This consisted of 10 tibia/femurs and 5 calvariae per group. Samples were placed on top of the FluorImager plate contained within a light-tight box. Ultra-violet light was used to generate calcein-mediated epi-fluorescence and the fluorescent-image was captured on a −40° C., peltier-cooled, 1,340×1040 pixel CCD resolution, CCD digital-camera. Quantitation of fluorescence was carried out using Quantity-1 (Bio-Rad, Hercules, Calif.) fluorescence-software. Pixel saturation was prevented by internal software calibration and exposure adjustment. All fluorescence readings were thus accurately quantitative and non-saturating. Photo-micrographic UV fluorescent analysis of calvarial cross sections embedded in plastic and mounted as slides (<100 micrometer sections) was also undertaken and a description of the fixation and processing is given in the next section.
Sanderson-staining and fluorescence detection of calvarial osteoid & mineralized bone. Staining of non-decalcified calvarial sections was performed using the method described by Sanderson and Bachus (Staining technique to differentiate mineralized and demineralized bone in ground sections, J Histotechnol 20(2): 119-122, 1997). This technique provides differential staining between unmineralized osteoid and mineralized bone. Prior to staining, calvariae were dissected and attached tissue removed. Calvariae were then placed in 70% ethanol for further fixation as described by Sanderson and Bachus (supra). After fixing and processing undecalcified calvariae were embedded in plastic (LR-white acrylic resin (London Resin Co., Reading, England)) as previously described (Garrett, et al., Selective inhibitors of the osteoblast proteasome stimulate bone formation in vivo and in vitro, J Clin Invest 111(11):1771-1782, 2003). Plastic embedded sections were ground to <100 micrometers using a specialized grinding-pestle as described by Donath and Breuner (A method for the study of undecalcified bones and teeth with attached soft tissues. The Sage-Schliff (sawing and grinding) technique, J Oral Pathol 11(4):318-26, 1982). […]

mice [1] = experiment: Example II: subcutaneous injection twice a day for three weeks, serum and urine; format: in vivo
Protocol: Four groups of 7 mice were injected subcutaneously twice a day for three weeks. The first group received vehicle only as a control, the second group received etidronate at 60 mg/kg/day, the third group received ASARM peptide at 1.3 mg/kg/day (“low ASARM”), and the fourth group received ASARM peptide at 4 mg/kg/day (“high ASARM”). Calcein/tetracycline was administered to the animals 4 days and 2 days before the end of the protocol for visualization purposes.
(§1) FIGS. 14a and 14b show the Fractional Excretion of Phosphate (FEP) in two different experiments. In the experiment shown in FIG. 14a, each of three groups of mice was treated with one injection per day, over two weeks, of either: (a) vehicle alone, (b) etidronate (10 mg/kg/day), or (c) ASARM peptide (2 mg/kg/day). In the experiment show in FIG. 14b, each of four groups of mice was treated with two injections per day, over three weeks, of either: (a) vehicle alone, (b) etidronate (60 mg/kg/day), (c) ASARM (1.34 mg/kg/day; “ASARM-low”), or (d) ASARM (4.00 mg/kg/day; “ASARM-high”).

mice [2] = experiment: Example III: subcutaneous injection once a day for 12 days, mineralization and phosphate handling; format: in vivo; details: etidronate 10 mg/kg/day, ASARM peptide 2 mg/kg/day
Protocol: as §1
Three groups of 5 mice each received a subcutaneous injection once a day for 12 days. […] Calcein was given at 20 mg/kg/day on days 3, 5, 8, and 10 to allow visualization. The first group of mice were given an injection of vehicle only. The second group of mice were given etidronate at 10 mg/kg/day. The third group of mice were given ASARM peptide at 2 mg/kg/day.

Bmax/inh, maximal percentage-inhibition of MEPE-PHEX binding (MEPE-PHEX interaction; 250 nM secPHEX, MEPE 6000 RU): 68% | Kd (MEPE-PHEX interaction; 250 nM secPHEX, MEPE 6000 RU, read-out: apparent KDapp, solution competition of MEPE-PHEX binding): 15 µM | Kd (MEPE-PHEX interaction; apparent KDapp, solution competition of secPHEX-MEPE binding, 250 nM secPHEX, MEPE 6000 RU (FIG. 34 legend), heading: apparent KDapp, solution competition of secPHEX-MEPE binding): 15 µM
Compound: N=C(N)NCCC[C@H](N)C(=O)N[C@@H](CC(=O)O)C(=O)N[C@@H](CC(=O)O)C(=O)N[C@@H](CO)C(=O)N[C@@H](CO)C(=O)N[C@@H](CCC(=O)O)C(=O)N[C@@H](CO)C(=O)N[C@@H](CO)C(=O)N[C@@H](CC(=O)O)C(=O)N[C@@H](CO)C(=O)NCC(=O)N[C@@H](COP(=O)(O)O)C(=O)N[C@@H](CO)C(=O)N[C@@H](COP(=O)(O)O)C(=O)N[C@@H](CCC(=O)O)C(=O)N[C@@H](COP(=O)(O)O)C(=O)N[C@@H](CC(=O)O)C(=O)NCC(=O)N[C@@H](CC(=O)O)C(=O)O [PO4-ASARM-peptide, RDDSSESSDSG(Sp)S(Sp)E(Sp)DGD] (H-RDDSSESSDSG[pS]S[pS]E[pS]DGD-OH)
inhibition of MEPE-PHEX interaction (MEPE-PHEX interaction): able to inhibit; also recorded: dramatic dose-dependent inhibition | tibiae-femurs fluorescence-signal reduction relative to vehicle (male ICR Swiss mice; PO4-ASARM-peptide 2 mg/kg/day): 44.5% | increase of osteoid layer thickness relative to vehicle (male ICR Swiss mice; PO4-ASARM-peptide 2 mg/kg/day): 3.5 fold | percentage quenching of calvarial calcein fluorescence relative to vehicle (male ICR Swiss mice; PO4-ASARM-peptide 2 mg/kg/day): 62% | calvariae calcein fluorescence (male ICR Swiss mice; PO4-ASARM-peptide 2 mg/kg/day): 568.7 fluorescent intensity units | calvarial osteoid relative thickness (Sanderson staining) (male ICR Swiss mice; PO4-ASARM-peptide 2 mg/kg/day): 8.0 | tibiae-femurs calcein fluorescent intensity (male ICR Swiss mice; PO4-ASARM-peptide 2 mg/kg/day, vehicle 268.52): 148.9

inhibition of MEPE-PHEX interaction (MEPE-PHEX interaction; listed as MEPE-RGD-peptide): no inhibition
Compound: GSGYTDLQERGDNDISPFSGDGQPF (Homo sapien) [MEPE-RGD, 15, negative control, reference compound]
inhibition of MEPE-PHEX interaction (MEPE-PHEX interaction): did not competitively inhibit; also recorded: no effect

Compound: CC(O)(P(=O)(O)O)P(=O)(O)O [etidronate, reference compound]
serum phosphate (mice [1]; etidronate 60 mg/kg/day s.c. twice a day, three weeks, vehicle 9.62): 10.04 mg/dL | serum calcium vs vehicle (mice [1]; etidronate 60 mg/kg/day, ASARM 1.3 and 4 mg/kg/day): lower serum calcium levels | serum alkaline phosphatase vs vehicle (mice [1]; etidronate 60 mg/kg/day, ASARM 1.3 and 4 mg/kg/day (both groups)): significantly higher levels | increase of osteoid layer thickness relative to vehicle (male ICR Swiss mice; PO4-ASARM-peptide 2 mg/kg/day): 2.35 fold | percentage quenching of calvarial calcein fluorescence relative to vehicle (male ICR Swiss mice; PO4-ASARM-peptide 2 mg/kg/day): 48% and 48.4% | calvariae calcein fluorescence (male ICR Swiss mice; PO4-ASARM-peptide 2 mg/kg/day): 417.7 fluorescent intensity units | calvarial osteoid relative thickness (Sanderson staining) (male ICR Swiss mice; PO4-ASARM-peptide 2 mg/kg/day): 5.4 | lamellar calcein fluorescent layers in calvarial cross-sections (male ICR Swiss mice; four layers visible in vehicle group): complete absence | Phosphate Excretion Index (PEI) (mice [2]): lower PEI | increase in urinary calcium levels compared to the control (mice [2]): 75.9% | inhibition in tooth mineralization (mice [2]): 53.2% | inhibition of mineralization in femur (mice [2]): 15.8% | inhibition of mineralization in tibia/femur (mice [2]): 19.2% | mineralization of calvariae and long bones (mice [2]): greatly inhibited | renal phosphorous clearance vs vehicle (mice [2]): significantly less phosphate clearance | serum calcium vs control (mice [2]): slightly higher level | serum phosphate (mice [2]): induce hyperphosphatemia | tubular reabsorption of phosphate vs vehicle (mice [2]): higher | urinary phosphate excreted in a 24-hour period vs control (mice [2]): far less phosphate | urine creatinine (mice [2]): significant elevation; also recorded: significantly elevated | urine phosphate (mice [2]): induced hypophosphaturia | Fractional Excretion of Phosphate (FEP) vs vehicle (mice [2]; s.c. once a day 12 days): significantly lower | inhibition of mineralization of calvariae (mice [2]; s.c. once a day 12 days, calcein): 48.4%
